Like-named read-outs stand apart in the source and are kept apart here.
Tests used:
[1] = target: C. elegans (N2) complex I (NADH:ubiquinone oxidoreductase) (Caenorhabditis elegans, UniProt P24887+Q93873+Q94360); test: biochemical; type: biochemical; conditions: for Log IC50 C. elegans complex I: log10 of IC50 in µM, C. elegans mitochondria
Protocol: Mitochondria were isolated from the following free-living nematode strains: C. elegans—N2, CB3474, ECA882, ECA917, ECA1075, ECA1080; C. briggsae—AF16; P. pacificus—PS312; and P. hermaphrodita—B178. With the exception of the P. hermaphrodita strain B178, adult worms of each strain were grown in bulk through liquid culture to obtain mitochondria in sufficient quantities. Due to poor growth in liquid media, mixed stage populations of P. hermaphrodita were washed off and collected from NGM plates seeded with OP50. The isolation of mitochondria from all free-living nematode strains followed the protocol previously outlined in Burns et al.[24]. In brief, a 1 L saturated culture of E. coli HB101 was concentrated 20-fold in 50 mL complete S-medium. ~500,000 L1 worms synchronized from an embryo preparation performed the day prior were added to the S-media/HB101 suspension and grown to adulthood over the course of 3.5 days at 20 °C with shaking at 165 rpm. Following growth, worms were collected in 10 ×15 mL conical tubes and washed 7 times in M9 buffer. Worm suspensions were then combined into a single 15 mL conical tube and diluted to a final volume of 15 mL with M9 buffer. 1 mL aliquots of worm suspension were then distributed to 15 × 1.5 mL screw-cap microcentrifuge tubes and were pelleted at 500 g for 1 min. Excess M9 was aspirated without disturbing the worm pellet. 600 μL ice-cold isolate buffer A (250 mM sucrose, 10 mM Tris (pH 7.5), 1 mM EDTA, 1 mM PMSF (freshly prepared)) and 300 μL cold glass beads were then added to each tube. Tubes were incubated on ice for 10 min, and the worms were then lysed by bead beating (6 x 30 s, with 1 min cooling intervals). Tubes containing worm lysate were centrifuged at 1,000 g for 10 min at 4 °C and the supernatant was transferred to 15 new microcentrifuge tubes on ice. The tubes were centrifuged a second time at 1,000 g for 10 min at 4 °C and the supernatant was once again transferred to 15 new microcentrifuge tubes on ice. These tubes were then centrifuged at 16,000 g for 10 min at 4 °C. The resulting mitochondrial pellet was washed twice by re-suspension in 300 μL of ice-cold isolate buffer B (250 mM sucrose, 10 mM Tris (pH 7.5), 1 mM EDTA). Following the final wash, isolation buffer was aspirated from each tube and the pellets were flash-frozen in ethanol/dry ice and stored at −80 °C until needed.
(§1) The enzymatic activities of individual ETC complexes (I-IV) were assessed spectrophotometrically in isolated mitochondria using a Varioskan LUX Multimode plate reader (ThermoFisher Scientific). Mitochondrial pellets previously isolated were thawed on ice and resuspended in ice-cold isolation buffer (250 mM sucrose, 10 mM Tris (pH 7.5), 1 mM EDTA). The BCA assay (Walker, 1994) was used to quantify the protein concentration of mitochondria suspensions; solutions were diluted to a concentration of 0.2 mg/mL for use in all assays. For the complex I assay, mitochondria pellets were freeze-thawed on ice three times to increase enzyme accessibility. […] 20 μL mitochondria suspension was then added/mixed with a pipette to initiate the reaction. Immediately following the addition of mitochondria, absorbance was measured (complex I and II: 600 nm; complex III and IV: 550 nm) in 30 s intervals over 15 min. Enzymatic activity was determined in each reaction by plotting absorbance versus time and calculating the slope of the curve during the initial linear phase of the reaction. […] Percent activity of each complex was calculated by dividing the enzyme-specific activity of each well by the enzyme-specific activity of the corresponding solvent controls.
(§2) Chemical solutions were prepared in complex I assay buffer composed of 25 mM KPi buffer (pH 7.5), 3 mg/mL bovine serum albumin (BSA), 80 μM NADH, 60 μM decylubiquinone, 160 μM DCIP, 2 μM antimycin A and 2 mM KCN.
For preliminary screens of hit compounds, compounds were screened at 100 μM; data are the average of at least three biological replicates.

[2] = target: B. taurus (heart) complex I (Bos taurus, UniProt P03887+P17694+P42026); test: biochemical; type: biochemical; conditions: for IC50: B. taurus heart mitochondria, read-out: B. taurus Complex I IC50; for Log IC50 B. taurus complex I: log10 of IC50 in µM, B. taurus mitochondria
Protocol: Six 8–10-week-old C57Bl/6 female mice (Charles River) were freshly dissected, and their livers and hearts collected into separate 1.5 mL microcentrifuge tubes. Organs were flash-frozen in liquid nitrogen and stored at −80 °C prior to use. The heart of a freshly slaughtered adult cow was obtained from a local abattoir (Peel Sausage Inc.), chopped into ~1-inch cubes and collected into 50 mL falcon tubes. Falcon tubes were flash-frozen in a container of dry ice and stored at −80 °C prior to use. Isolation of mitochondria from all mammalian tissue was carried out following the protocol described above. However, due to size, the initial homogenization of tissue was performed by 15 strokes in a dounce homogenizer (mouse heart) or with several 5 s pulses in small Nutribullet blender (cow heart). All mouse protocols for mouse care and dissection were reviewed and approved by the University of Toronto Animal Care Committee, in accordance with the Canadian Council on Animal Care.
as §1, §2
For preliminary screens of hit compounds, compounds were screened at 100 μM; data are the average of at least three biological replicates. The complex I and II activity assays were used for additional dose-response experiments. […] For dose responses of benzimidazole analogs, data represent the average of two biological replicates. For all other dose-responses, data represent the average of at least three biological replicates.

in vitro = conditions: human
[3] = test system: ben-1 mutant (ECA882) C. elegans; test: microbe, parasite or virus in culture; conditions: Caenorhabditis elegans
Protocol: Liquid development and viability assays were adapted from a previously established chemical screening protocol (Burns et al.)[24]. In brief, a saturated culture of E. coli HB101 was concentrated 2-fold in liquid NGM and 40 μL of this suspension was distributed to each well of a 96-well flat-bottom culture plate. 0.5 μL chemical solution (or DMSO alone) was added to each well (1% DMSO v/v) using either a multi-channel pipette or a pinning tool (V&P Scientific). L1 worms synchronized from an embryo preparation performed the day prior were diluted to a concentration of ~2 worms/μL in M9 buffer; 10 μL worm suspension was then added to each well. Culture plates were sealed with parafilm and placed in a plastic container lined with wet paper towels to prevent evaporation. Containers were then incubated for 6 days at 20 °C with shaking at 165 rpm. Following incubation, 300 μL M9 was added to each well to decrease the turbidity of the HB101-NGM suspension. Single images of each microplate well were then taken on a Nikon Ti Eclipse inverted microscope (Nikon NIS Elements AR). Images were processed using Python scripts to isolate worm-associated pixels from background. Scores of worm development and viability were determined as the sum of worm-associated pixels in each well. Development/viability scores for each well were divided by the development /viability scores for the corresponding DMSO controls, resulting in a relative viability value for each chemical. At least three biological replicates were performed for each dose-response experiment; relative viability values were averaged across replicates. […]
anthelmintics. a. Chemical structures of four commercial benzimidazole anthelmintics (e.g., albendazole, […]
Dose response of four commercial […]
elegans strains: N2, wild type; ECA882, deletion (ben-1); ECA917, F200Y (ben-1); ECA1075, F167Y (ben-1); ECA1080, E198A (ben-1); CB3474, G104D (ben-1). The colour-coded scale denotes the phenotypic outcome of drug treatment (e.g., motility or viability) relative to DMSO controls; white/pale- […]
death and arrested development. c. […]
benzimidazole anthelmintics (blue) were conducted in C. elegans development and viability assays for wild type (N2) and ben-1 mutant (ECA882) C. elegans (see Supplementary Date File 1).
All data used for generation of dose-response curves is the mean of at least three […]
Supplementary Figure 7 (continued). Davie et al.

L1 wild-type C. elegans [4] = test: microbe, parasite or virus in culture; conditions: Caenorhabditis elegans, read-out: C. elegans KCN Survival Assay LC50, estimated from fitted dose-response curves; mean of at least two biological replicates
L1 wild-type C. elegans [5] = conditions: for Relative Motility: worm motility 3 hours after the removal of KCN (endpoint), relative to DMSO controls, single biological replicate
[6] = in vitro complex I dose response on C. elegans mitochondria, average of at least two biological replicates, fit in R (DRC), read-out: IC50 C. elegans complex I
[7] = wild-type (N2) mitochondria, read-out: C. elegans Complex I IC50
[8] = wild-type C. elegans mitochondria, read-out: C. elegans Complex I IC50
[9] = read-out: C. elegans (ben-1) Development & Viability Assay LC50
[10] = read-out: C. elegans ben-1 log10 LC50 (converted)
[11] = 50 μM compound, hit = relative motility below 0.25 3 hours after removal of KCN
[12] = wild-type C. elegans mitochondria, estimated from fitted dose-response curves, read-out: C. elegans Complex I IC50
[13] = HEK293 Cell Viability Assay LC50, HEK293 cells, estimated from fitted dose-response curves, mean of at least two biological replicates
[14] = 50 μM, KCN survival assay, hit = relative motility below 0.25

C. elegans (N2) complex I (NADH:ubiquinone oxidoreductase), sequence (Q94360 17-199): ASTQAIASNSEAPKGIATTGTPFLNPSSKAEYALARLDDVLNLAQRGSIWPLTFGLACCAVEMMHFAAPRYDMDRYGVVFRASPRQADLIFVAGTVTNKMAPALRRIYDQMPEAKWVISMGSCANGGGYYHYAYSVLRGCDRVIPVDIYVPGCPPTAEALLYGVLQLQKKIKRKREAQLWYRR
C. elegans (N2) complex I (NADH:ubiquinone oxidoreductase), sequence (P24887 whole entry): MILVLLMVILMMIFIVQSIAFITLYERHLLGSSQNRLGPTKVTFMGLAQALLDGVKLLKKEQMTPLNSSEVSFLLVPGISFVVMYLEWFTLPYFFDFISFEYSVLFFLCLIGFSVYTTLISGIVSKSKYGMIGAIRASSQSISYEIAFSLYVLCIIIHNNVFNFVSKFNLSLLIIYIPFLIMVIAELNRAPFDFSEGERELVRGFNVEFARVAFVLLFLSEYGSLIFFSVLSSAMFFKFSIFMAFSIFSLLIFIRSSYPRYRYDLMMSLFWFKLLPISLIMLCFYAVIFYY
C. elegans (N2) complex I (NADH:ubiquinone oxidoreductase), sequence (Q93873 31-482): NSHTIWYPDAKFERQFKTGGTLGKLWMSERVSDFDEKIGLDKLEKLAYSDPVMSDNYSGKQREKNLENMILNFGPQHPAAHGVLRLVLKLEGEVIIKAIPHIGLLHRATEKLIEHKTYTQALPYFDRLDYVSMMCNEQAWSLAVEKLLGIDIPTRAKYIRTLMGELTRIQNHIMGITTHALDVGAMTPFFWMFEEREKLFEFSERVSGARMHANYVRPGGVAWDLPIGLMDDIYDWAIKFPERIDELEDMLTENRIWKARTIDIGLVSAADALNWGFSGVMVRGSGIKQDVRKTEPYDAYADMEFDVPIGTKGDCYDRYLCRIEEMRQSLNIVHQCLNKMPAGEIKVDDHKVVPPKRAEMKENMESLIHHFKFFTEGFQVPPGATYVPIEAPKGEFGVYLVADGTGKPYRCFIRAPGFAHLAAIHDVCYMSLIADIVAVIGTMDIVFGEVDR
B. taurus (heart) complex I, sequence (P03887 whole entry): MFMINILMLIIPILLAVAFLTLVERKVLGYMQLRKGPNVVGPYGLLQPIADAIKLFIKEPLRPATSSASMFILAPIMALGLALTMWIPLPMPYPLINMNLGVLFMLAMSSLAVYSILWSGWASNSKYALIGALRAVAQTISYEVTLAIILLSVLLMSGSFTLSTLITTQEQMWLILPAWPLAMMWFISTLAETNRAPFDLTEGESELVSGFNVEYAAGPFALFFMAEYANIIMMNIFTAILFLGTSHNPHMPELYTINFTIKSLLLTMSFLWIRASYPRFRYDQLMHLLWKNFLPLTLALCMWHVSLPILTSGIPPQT
B. taurus (heart) complex I, sequence (P17694 34-463): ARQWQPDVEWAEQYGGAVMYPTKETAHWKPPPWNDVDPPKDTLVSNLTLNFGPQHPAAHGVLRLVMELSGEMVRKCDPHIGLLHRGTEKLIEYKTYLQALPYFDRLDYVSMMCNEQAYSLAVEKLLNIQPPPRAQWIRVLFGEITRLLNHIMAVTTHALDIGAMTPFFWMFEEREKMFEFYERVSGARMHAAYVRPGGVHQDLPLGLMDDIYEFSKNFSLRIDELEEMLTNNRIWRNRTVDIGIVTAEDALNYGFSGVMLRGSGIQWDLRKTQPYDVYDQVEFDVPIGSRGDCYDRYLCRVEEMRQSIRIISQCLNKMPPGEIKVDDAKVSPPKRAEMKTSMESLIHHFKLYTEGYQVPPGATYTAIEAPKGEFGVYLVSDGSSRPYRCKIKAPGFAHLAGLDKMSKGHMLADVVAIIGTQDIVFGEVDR
B. taurus (heart) complex I, sequence (P42026 38-216): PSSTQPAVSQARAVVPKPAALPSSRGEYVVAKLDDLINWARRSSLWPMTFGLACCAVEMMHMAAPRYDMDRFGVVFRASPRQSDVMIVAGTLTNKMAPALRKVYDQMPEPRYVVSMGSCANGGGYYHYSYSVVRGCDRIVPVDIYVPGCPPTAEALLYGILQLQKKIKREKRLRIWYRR

| Compound | IC50 [1, 6] [µM] | Log IC50 C. elegans complex I [1] [µM] | IC50 [1, 7] [µM] | IC50 [1, 8] [µM] | IC50 [2] [µM] | Log IC50 B. taurus complex I [2] [µM] | CC50 at 2 days (in vitro) [µM] | LC50 [3, 9] [µM] | LC50 [3, 10] [µM] | LC50 (L1 wild-type C. elegans [4]) [µM] | Screen "Hit" (L1 wild-type C. elegans [5]; [11]) | LC50 ([3]; read-out: C. elegans ben-1 LC50) [µM] | IC50 [1, 12] [µM] | CC50 at 2 days (in vitro; [13]) [µM] | Screen "Hit" (L1 wild-type C. elegans [5]; [14]) | Relative Motility (L1 wild-type C. elegans [5]; 50 μM) | CC50 at 2 days (in vitro; HEK293 Cell Viability Assay LC50, HEK293 cells, estimated from fitted dose-response curves) [µM] | Hit (L1 wild-type C. elegans [5]; active or inactive at 50 μM in C. elegans assay of RQ-dependent metabolism) | IC50 ([2]; estimated from fitted dose-response curves) [µM] |
| --- | --- | --- | --- | --- | --- | --- | --- | --- | --- | --- | --- | --- | --- | --- | --- | --- | --- | --- | --- |
| Cc1nc2ccccc2n1Cc1ccc(C(C)(C)C)cc1 [Compound 5521938] | 2.57 | 0.41 | 2.57 | 2.57 | 1.18 | 0.07 | 35.3 | 272 | 272 | 11 | Y (hits were identified as compounds that reduced relative motility below 0.25 (75% reduction)) |  |  |  |  |  |  |  |  |
| c1ccc(-c2noc(CCCCc3nc4ccccc4[nH]3)n2)cc1 [STK633241] | 20.6 | 1.31 |  | 20.6 | 18.5 | 1.27 |  | > 1000 | > 500 | 19.4 | Y (hits were identified as compounds that reduced relative motility below 0.25 (75% reduction)) | > 500 |  |  |  |  |  |  |  |
| CCn1c(/C=C/c2ccc(F)cc2)nc2ccccc21 [Compound 7147614] |  |  |  |  |  |  |  | 77 | 77.1 | 14.4 |  |  | > 75 | 41 | Y (hits were identified as compounds that reduced relative motility below 0.25 (75% reduction)) | 0.130 |  |  |  |
| Nc1nc2ccccc2n1CCCOc1ccccc1 [Compound 7915320] | 6.9 | 0.84 |  | 6.9 | 15.6 | 1.19 |  | 150 | 150 | 23.7 |  |  |  |  |  |  | 60 | non |  |
| Cc1nc2ccccc2n1Cc1ccc(F)cc1 [Compound 7360886] | 0.93 | -0.03 | 0.93 |  |  | 0.66 | > 100 | 170 | 169 | 27 | Y (hits were identified as compounds that reduced relative motility below 0.25 (75% reduction)) |  | 0.93 |  |  |  |  |  | 4.54 |
| Cn1c(Cc2ccc(Cl)cc2)nc2ccccc21 [Compound 9005666] | 8.27 | 0.92 | 8.27 | 8.27 | 33.3 | 1.52 | > 100 | 193 | 193 | 28.6 | Y (hits were identified as compounds that reduced relative motility below 0.25 (75% reduction)) |  |  |  |  |  |  |  |  |
| COc1ccccc1/C=C/c1nc2ccccc2[nH]1 [Compound 7148894] |  |  |  |  |  |  |  | 188 | 188 | 9.02 |  |  | > 75 | < 12.5 | Y (hits were identified as compounds that reduced relative motility below 0.25 (75% reduction)) | 0.170 |  |  |  |

From article PMC11079024, “Identification of a family of species-selective complex I inhibitors as potential anthelmintics” (Nature Communications, 2024)
